Data published in patent publication US10280167B2, “Purine derivatives for the treatment of viral infections” (JANSSEN SCIENCES IRELAND UC, priority 2011, dated 2019).
Like-named read-outs stand apart in the source and are kept apart here.

Tests used:
Type in all cases: cell-based
[1] = tested on: Huh-7 luc/neo HCV replicon cells with conditioned media from PBMC; experiment: Interferon production in human PBMC (PBMC-HUH7_EC50), HCV replicon readout with conditioned media; settings: Homo sapiens, Huh-7; concentration applied to PBMCs giving 50% reduction of replicon luciferase activity
Experimental: Measurement of Interferon Production in Human PBMC (PBMC-HUH7_EC50)
Activation of human TLR7 results in robust production of interferon by plasmacytoid dendritic cells present in human blood. The potential of compounds to induce interferon was evaluated by looking at the antiviral activity in the HCV replicon system upon incubation with conditioned media from peripheral blood mononuclear cells (PBMC). The HCV replicon assay is based on a bicistronic expression construct, as described by Lohmann et al. (Science (1999) 285: 110-113; Journal of Virology (2003) 77: 3007-15 3019) with modifications described by Krieger et al. (Journal of Virology (2001) 75: 4614-4624). The assay utilized the stably transfected cell line Huh-7 luc/neo harboring an RNA encoding a bicistronic expression construct comprising the wild type NS3-NS5B regions of HCV type 1b translated from an Internal Ribosome Entry Site (IRES) from encephalomyocarditis virus (EMCV), preceded by a reporter gene (Firefly-luciferase) and a selectable marker gene (neoR, neomycine phosphotransferase). The construct is flanked by 5′ and 3′ NTRs (non-translated regions) from HCV type 1b. Continued culture of the replicon cells in the presence of G418 (neoR) is dependent on the replication of the HCV RNA. The stably transfected replicon cells that replicate HCV RNA autonomously and to high levels, encoding inter alia luciferase, were used for profiling of the conditioned cell culture media. Briefly, PBMCs were prepared from buffy coats of at least two donors using a standard Ficoll centrifugation protocol. Isolated PBMCs were resuspended in RPMI medium supplemented with 10% human AB serum and 2×10^5 cells/well were dispensed into 384-well plates containing compounds (70 μL total volume). After overnight incubation, […] was transferred to 384-well plates containing 2.2×10^3 replicon cells/well in 30 μL (plated the day before). Following 24 hours of incubation, replication was measured by assaying luciferase activity using 40 μL/well Steady Lite Plus substrate (Perkin Elmer) and measured with ViewLux ultraHTS microplate imager (Perkin Elmer). The inhibitory activity of each compound on the Huh7-luc/neo cells were reported as EC50 values, defined as the compound concentration applied to the PBMCs resulting in a 50% reduction of luciferase activity which in turn indicates the degree of replication of the replicon RNA on transfer of a defined amount of PBMC culture medium. Recombinant interferon α-2a (Roferon-A) was used as a standard control compound.

[2] = tested on: HEK-ISRE-luc cells with conditioned media from PBMC; experiment: Interferon production in human PBMC (PBMC HEK-ISRE-luc LEC); settings: Homo sapiens, PBMC, read-out: PBMC HEK-ISRE-luc (LEC)
Experimental: Measurement of Interferon Production in Human PBMC (PBMC HEK-ISRE-Luc LEC)
Activation of human TLR7 results in robust production of interferon by plasmacytoid dendritic cells present in human blood. The potential of compounds to induce interferon was evaluated by determination of interferon in the conditioned media from peripheral blood mononuclear cells (PBMC). The presence of interferon in the samples was determined, using an interferon reporter cell line stably expressing an interferon-stimulated responsive elements (ISRE)-luc reporter construct. The ISRE element with sequence GAAACTGAAACT (SEQ ID NO: 1) is highly responsive to the STAT1-STAT2-IRF9 transcription factor, which becomes activated upon binding of IFN-I to the IFN receptor. Briefly, PBMCs were prepared from buffy coats of at least two donors using a standard Ficoll centrifugation protocol. Isolated PBMCs were resuspended in RPMI medium supplemented with 10% human AB serum and 2×10^5 cells/well were dispensed into 384-well plates containing compounds (70 μL total volume). After overnight incubation of the PBMCs with the compounds, 10 μL of supernatant was transferred to 384-well plates containing 5×10^3 HEK-ISRE-luc cells/well in 30 μL (plated the day before). Following 24 hours of incubation, activation of the ISRE elements was measured by assaying luciferase activity using 40 μL/well Steady Lite Plus substrate (Perkin Elmer) and measured with ViewLux ultraHTS microplate imager (Perkin Elmer). The stimulating activity of each compound on the HEK-ISRE-luc cells was reported as LEC. The LEC in turn indicates the degree of ISRE activation on transfer of a defined amount of PBMC culture medium.
Recombinant interferon alfa-2a (Roferon-A) was used as a standard control compound.

human TLR7 = human TLR7 (Homo sapiens (Human), UniProt Q9NYK1); experiment: Reporter assay for TLR7 activity, HEK293 transiently transfected with wild type TLR7 and NFκB-luc; settings: lowest effective concentration; 48 h transfection
human TLR7, sequence (Q9NYK1 27-1049): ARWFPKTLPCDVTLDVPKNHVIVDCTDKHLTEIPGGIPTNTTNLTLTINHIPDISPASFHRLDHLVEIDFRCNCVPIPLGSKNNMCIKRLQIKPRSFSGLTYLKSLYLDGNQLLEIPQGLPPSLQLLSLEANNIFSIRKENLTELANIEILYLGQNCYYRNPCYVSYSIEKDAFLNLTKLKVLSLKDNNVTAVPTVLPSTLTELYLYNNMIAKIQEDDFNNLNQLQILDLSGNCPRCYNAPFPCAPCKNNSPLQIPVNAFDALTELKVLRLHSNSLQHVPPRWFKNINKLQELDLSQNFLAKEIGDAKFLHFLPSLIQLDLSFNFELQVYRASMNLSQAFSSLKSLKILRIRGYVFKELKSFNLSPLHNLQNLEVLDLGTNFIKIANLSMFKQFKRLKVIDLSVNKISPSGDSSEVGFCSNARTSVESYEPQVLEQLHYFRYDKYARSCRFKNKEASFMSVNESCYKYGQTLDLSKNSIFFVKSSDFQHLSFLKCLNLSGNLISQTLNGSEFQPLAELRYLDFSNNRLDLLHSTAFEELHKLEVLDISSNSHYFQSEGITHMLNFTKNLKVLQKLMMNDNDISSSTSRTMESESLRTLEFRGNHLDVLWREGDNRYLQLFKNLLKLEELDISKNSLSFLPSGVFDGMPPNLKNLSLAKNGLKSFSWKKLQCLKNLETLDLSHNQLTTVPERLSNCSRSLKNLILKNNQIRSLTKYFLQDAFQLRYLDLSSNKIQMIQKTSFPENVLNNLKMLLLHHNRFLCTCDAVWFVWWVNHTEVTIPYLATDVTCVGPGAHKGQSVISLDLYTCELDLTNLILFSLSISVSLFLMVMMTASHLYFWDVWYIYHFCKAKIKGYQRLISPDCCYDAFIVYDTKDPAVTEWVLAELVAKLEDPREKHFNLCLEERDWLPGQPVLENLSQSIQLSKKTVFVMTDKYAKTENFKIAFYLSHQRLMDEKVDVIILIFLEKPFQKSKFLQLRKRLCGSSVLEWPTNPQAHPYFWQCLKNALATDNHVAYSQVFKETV

human TLR7 dIRR2 mutant = experiment: Reporter assay for TLR7 activity, HEK293 transfected with mutant TLR7 (dIRR2 deletion) and NFκB-luc; settings: lowest effective concentration; 48 h transfection

Row | Structure (SMILES) | EC50 [1] | minimal effective concentration ([2]; lowest effective concentration) | TLR7-wt_LEC 48 h (human TLR7) | TLR7-dIRR2_LEC 48 h (human TLR7 dIRR2 mutant) | minimal effective concentration [2]
1 | Cc1nc(-c2nc(N)c3[nH]c(=O)n(Cc4ccccc4)c3n2)[nH]c1C [Compound 7] | 640 nM | 0.88 µM | >25 µM | 1.46 µM | 
2 | Cc1c[nH]c(-c2nc(N)c3[nH]c(=O)n(Cc4ccccc4)c3n2)n1 [Compound 8] | 170 nM | 0.25 µM | 5.91 µM | 0.17 µM | 
3 | Cc1ccc(Cn2c(=O)[nH]c3c(N)nc(-c4ncc[nH]4)nc32)cn1 [Compound 9] | 50 nM | 0.03 µM | 0.88 µM | 0.07 µM | 
4 | COCCn1ccnc1-c1nc(N)c2[nH]c(=O)n(Cc3ccccc3)c2n1 [Compound 11] | 330 nM | 0.32 µM | 5.36 µM | 0.19 µM | 
5 | Cn1ccnc1-c1nc(N)c2[nH]c(=O)n(Cc3ccccc3)c2n1 [Compound 12] | 590 nM | 0.34 µM | 8.08 µM | 0.3 µM | 
6 | Nc1nc(-c2ccn[nH]2)nc2c1[nH]c(=O)n2Cc1ccccc1 [Compound 23] | 130 nM | 0.12 µM | 0.23 µM | 0.007 µM | 
7 | Nc1nc(-c2ncc[nH]2)nc2c1[nH]c(=O)n2Cc1ccc2c(c1)CNCC2 [Compound 24] | 46 nM | 0.03 µM | 1.81 µM | 0.11 µM | 
8 | Nc1nc(-c2ncc[nH]2)nc2c1[nH]c(=O)n2Cc1cccc(CN2CCCC2)c1 [Compound 25] | 6 nM | 0.007 µM | 2.46 µM | 0.39 µM | 
9 | Cc1ccc(Cn2c(=O)[nH]c3c(N)nc(-c4nc(C5CC5)c[nH]4)nc32)cn1 [Compound 26] | 5 nM | 0.006 µM | 2.42 µM | 0.21 µM | 
10 | Nc1nc(-c2nccn2CCO)nc2c1[nH]c(=O)n2Cc1ccccc1 [Compound 27] | 800 nM | 0.43 µM | 6.03 µM | 0.63 µM | 
11 | CC(C)(C)c1c[nH]c(-c2nc(N)c3[nH]c(=O)n(Cc4ccccc4)c3n2)n1 [Compound 28] | > 23800 nM | > 23.8 µM | >25 µM | 8.77 µM | 
12 | CC(C)c1c[nH]c(-c2nc(N)c3[nH]c(=O)n(Cc4ccccc4)c3n2)n1 [Compound 29] | 1660 nM | 0.82 µM |  | 1.58 µM | 
13 | CCc1c[nH]c(-c2nc(N)c3[nH]c(=O)n(Cc4ccccc4)c3n2)n1 [Compound 30] | 170 nM | 0.12 µM | 12.71 µM | 0.14 µM | 
14 | Nc1nc(-c2nc(C(F)(F)F)c[nH]2)nc2c1[nH]c(=O)n2Cc1ccccc1 [Compound 31] | 1300 nM | 2.2 µM | 23.23 µM | 0.51 µM | 
15 | Nc1nc(-c2cnco2)nc2c1[nH]c(=O)n2Cc1ccccc1 [Compound 32] | 1510 nM | 0.97 µM | 6.5 µM | 0.97 µM | 
16 | Cc1noc(-c2nc(N)c3[nH]c(=O)n(Cc4ccccc4)c3n2)n1 [Compound 33] | 810 nM | 0.52 µM | 21.66 µM | 0.98 µM | 
17 | COCCc1nnc(-c2nc(N)c3[nH]c(=O)n(Cc4ccccc4)c3n2)o1 [Compound 34] | 690 nM | 0.49 µM | >25 µM | 1.21 µM | 
18 | Cc1cnn(-c2nc(N)c3[nH]c(=O)n(Cc4ccccc4)c3n2)c1 [Compound 35] | 170 nM | 0.1 µM | 0.36 µM | 0.033 µM | 

Row | Structure (SMILES) | EC50 [1] | minimal effective concentration ([2]; lowest effective concentration) | TLR7-wt_LEC 48 h (human TLR7) | TLR7-dIRR2_LEC 48 h (human TLR7 dIRR2 mutant) | minimal effective concentration [2]
19 | COC(=O)c1cccc(Cn2c(=O)[nH]c3c(N)nc(-n4cccn4)nc32)c1 [Compound 37] |  | 0.01 µM | 0.05 µM |  | 
20 | Nc1nc(-n2cccn2)nc2c1[nH]c(=O)n2Cc1cccc(C(=O)O)c1 [Compound 38] |  | > 25 µM | 0.38 µM |  | 
21 | Nc1nc(-n2cccn2)nc2c1[nH]c(=O)n2Cc1cccc(CO)c1 [Compound 39] |  | 0.01 µM | 0.05 µM |  | 
22 | CCOP(=O)(Cc1cccc(Cn2c(=O)[nH]c3c(N)nc(-n4cccn4)nc32)c1)OCC [Compound 40] |  |  | 0.03 µM |  | 0.01 µM
23 | Cl.Nc1nc(-n2cccn2)nc2c1[nH]c(=O)n2Cc1cccc(CP(=O)(O)O)c1 [Compound 41] |  | 0.4 µM | 0.03 µM |  | 
24 | Nc1nc(-c2ccn[nH]2)nc2c1[nH]c(=O)n2Cc1cn2ccccc2n1 [Compound 43] |  | 0.15 µM | 0.50 µM |  | 
25 | COC(=O)c1cccc(Cn2c(=O)[nH]c3c(N)nc(-c4ccn[nH]4)nc32)c1 [Compound 44] |  | 0.04 µM | 0.10 µM |  | 
26 | Nc1nc(-c2ccn[nH]2)nc2c1[nH]c(=O)n2Cc1cccc(C(=O)O)c1 [Compound 45] |  | 1.37 µM | 0.58 µM |  | 
27 | Nc1nc(-c2ccn[nH]2)nc2c1[nH]c(=O)n2Cc1cccc(CO)c1 [Compound 46] |  | 0.03 µM | 0.21 µM |  | 
28 | CCOP(=O)(CCCn1ccnc1-c1nc(N)c2[nH]c(=O)n(Cc3ccccc3)c2n1)OCC [Compound 47] |  |  | 14.12 µM |  | 1.64 µM
29 | Nc1nc(-n2cccn2)nc2c1[nH]c(=O)n2Cc1cn2ccccc2n1 [Compound 48] |  | 0.01 µM | 0.01 µM |  | 
30 | COc1ccnc(Cn2c(=O)[nH]c3c(N)nc(-n4cccn4)nc32)c1OC [Compound 49] |  | 0.06 µM | 0.31 µM |  | 
31 | Cc1ccc(Cn2c(=O)[nH]c3c(N)nc(-n4cccn4)nc32)cn1 [Compound 50] |  | 0.01 µM | 0.03 µM |  | 
32 | Nc1nc(-c2cc(C3CC3)n[nH]2)nc2c1[nH]c(=O)n2Cc1ccccc1 [Compound 51] |  | 0.17 µM | 0.16 µM |  | 
33 | Nc1nc(-c2ccn(CCO)n2)nc2c1[nH]c(=O)n2Cc1ccccc1 [Compound 52] |  | 0.42 µM | 4.42 µM | 0.41 µM | 
34 | Cc1cn[nH]c1-c1nc(N)c2[nH]c(=O)n(Cc3ccccc3)c2n1 [Compound 53] | 760 nM |  | 3.17 µM | 0.36 µM | 
35 | Nc1nc(-c2ncc[nH]2)nc2c1[nH]c(=O)n2Cc1cccc(C(=O)N2CCCC2)c1 [Compound 55] | 1270 nM | 1.16 µM |  | 0.06 µM | 
